Assay results: patent US7074789B2, “Kinase inhibitors” (Amgen Inc., priority 1999, dated 2006)
Where two headings read alike, the source gives them in different places.

Experiments:
Type in all cases: biochemical
[1] = target: T1, Tek (Homo sapiens, UniProt Q02763); assay: Kinase inhibition assay (33P transfer), Tek; conditions: read-out: Tek-1
T1 construct: Kinases are expressed as either kinase domains or full length constructs; made in house
Procedure, shortened: (§1)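 Each enzyme, purified to near homogeneity by affinity chromatography, was incubated with ATP carrying 33P and a substrate polymer fixed to the plate. Unbound label was removed with dilute phosphoric acid (0.5%) before adding scintillant and counting. Potency is given as the compound level cutting label uptake by 50%.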

[2] = target: T2, AKT (Homo sapiens, UniProt Q9Y243); assay: Kinase inhibition assay (33P transfer), AKT; conditions: Table 2, kinase inhibition class; read-out: AKT3-1
T2 construct: Kinases are expressed as either kinase domains or full length constructs; made in house
T2 sequence (Q9Y243 whole entry, the tested form may be a part): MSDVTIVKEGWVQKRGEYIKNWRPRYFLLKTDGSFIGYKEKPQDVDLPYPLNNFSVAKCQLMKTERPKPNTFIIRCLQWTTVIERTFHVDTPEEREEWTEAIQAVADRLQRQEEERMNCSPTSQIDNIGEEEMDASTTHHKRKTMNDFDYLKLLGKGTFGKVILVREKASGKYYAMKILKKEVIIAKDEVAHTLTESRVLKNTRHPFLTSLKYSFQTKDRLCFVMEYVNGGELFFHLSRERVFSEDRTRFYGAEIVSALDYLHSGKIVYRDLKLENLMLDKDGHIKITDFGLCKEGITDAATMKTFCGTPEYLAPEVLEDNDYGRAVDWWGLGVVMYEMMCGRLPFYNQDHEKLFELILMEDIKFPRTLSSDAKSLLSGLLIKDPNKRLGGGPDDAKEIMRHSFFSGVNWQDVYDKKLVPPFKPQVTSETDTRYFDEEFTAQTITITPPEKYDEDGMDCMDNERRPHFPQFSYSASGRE
Procedure, shortened: (§2)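 Filterless plate radiometric format: immobilized poly(Glu,Tyr) 4:1 or poly(Arg,Ser) 3:1, 33P-labelled ATP, tagged recombinant kinase (some with regulatory partners). Incorporated label counted after phosphoric acid wash.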

[3] = target: T3, IGFR-1 (Homo sapiens, UniProt P08069); assay: Kinase inhibition assay, IGFR-1 (Table 2); conditions: Table 2, kinase inhibition class
T3 construct: Kinases are expressed as either kinase domains or full length constructs; made in house

[4] = target: T4, c-Met (Homo sapiens, UniProt P08581); assay: Kinase inhibition assay (33P transfer), c-Met; conditions: Table 2, kinase inhibition class; read-out: Met-1
T4 construct: Kinases are expressed as either kinase domains or full length constructs; made in house
T4 sequence (P08581 25-1390): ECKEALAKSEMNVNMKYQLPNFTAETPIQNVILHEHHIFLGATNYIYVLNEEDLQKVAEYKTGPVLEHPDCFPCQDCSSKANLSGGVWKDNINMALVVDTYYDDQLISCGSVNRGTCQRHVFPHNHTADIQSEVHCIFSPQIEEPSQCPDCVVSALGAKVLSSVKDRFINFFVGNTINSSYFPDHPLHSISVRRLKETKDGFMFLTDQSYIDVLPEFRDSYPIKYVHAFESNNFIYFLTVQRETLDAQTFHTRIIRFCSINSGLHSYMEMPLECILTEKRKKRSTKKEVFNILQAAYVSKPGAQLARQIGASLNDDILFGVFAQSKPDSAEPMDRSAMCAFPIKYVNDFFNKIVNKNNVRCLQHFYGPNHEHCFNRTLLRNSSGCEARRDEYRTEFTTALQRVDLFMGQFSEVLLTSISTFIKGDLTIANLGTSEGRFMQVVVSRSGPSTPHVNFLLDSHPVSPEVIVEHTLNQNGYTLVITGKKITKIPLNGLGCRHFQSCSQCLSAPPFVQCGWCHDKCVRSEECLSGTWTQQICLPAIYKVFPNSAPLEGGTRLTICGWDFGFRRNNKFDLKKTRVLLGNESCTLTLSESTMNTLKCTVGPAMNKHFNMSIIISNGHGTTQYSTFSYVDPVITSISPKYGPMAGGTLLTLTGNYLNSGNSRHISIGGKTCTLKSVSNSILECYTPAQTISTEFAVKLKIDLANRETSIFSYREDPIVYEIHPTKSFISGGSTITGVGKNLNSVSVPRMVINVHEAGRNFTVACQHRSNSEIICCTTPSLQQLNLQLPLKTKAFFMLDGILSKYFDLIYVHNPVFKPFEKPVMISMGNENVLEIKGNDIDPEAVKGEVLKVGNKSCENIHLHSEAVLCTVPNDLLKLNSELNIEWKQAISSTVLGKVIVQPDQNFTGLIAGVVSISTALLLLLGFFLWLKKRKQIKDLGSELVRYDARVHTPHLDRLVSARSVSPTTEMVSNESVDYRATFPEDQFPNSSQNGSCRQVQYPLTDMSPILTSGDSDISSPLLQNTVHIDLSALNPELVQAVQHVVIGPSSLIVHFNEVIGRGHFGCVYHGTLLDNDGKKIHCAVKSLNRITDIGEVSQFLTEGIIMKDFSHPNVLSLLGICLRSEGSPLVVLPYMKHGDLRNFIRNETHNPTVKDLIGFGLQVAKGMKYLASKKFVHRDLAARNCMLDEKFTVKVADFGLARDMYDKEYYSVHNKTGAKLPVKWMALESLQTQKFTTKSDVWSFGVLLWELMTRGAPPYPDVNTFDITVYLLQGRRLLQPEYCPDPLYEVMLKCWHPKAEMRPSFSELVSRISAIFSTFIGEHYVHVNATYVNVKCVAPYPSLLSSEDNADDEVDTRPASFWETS
Procedure, shortened: as §1

[5] = target: T5, ErbB2 (Homo sapiens, UniProt P04626); assay: Kinase inhibition assay (33P transfer), ErbB2; conditions: read-out: ErbB2-2
T5 construct: Kinases are expressed as either kinase domains or full length constructs; made in house
Procedure, shortened: as §1

[6] = target: T6, Itk (Homo sapiens, UniProt Q08881); assay: Kinase inhibition assay (33P transfer), Itk; conditions: read-out: Itk-1
T6 construct: Kinases are expressed as either kinase domains or full length constructs; made in house
T6 sequence (Q08881 1-620): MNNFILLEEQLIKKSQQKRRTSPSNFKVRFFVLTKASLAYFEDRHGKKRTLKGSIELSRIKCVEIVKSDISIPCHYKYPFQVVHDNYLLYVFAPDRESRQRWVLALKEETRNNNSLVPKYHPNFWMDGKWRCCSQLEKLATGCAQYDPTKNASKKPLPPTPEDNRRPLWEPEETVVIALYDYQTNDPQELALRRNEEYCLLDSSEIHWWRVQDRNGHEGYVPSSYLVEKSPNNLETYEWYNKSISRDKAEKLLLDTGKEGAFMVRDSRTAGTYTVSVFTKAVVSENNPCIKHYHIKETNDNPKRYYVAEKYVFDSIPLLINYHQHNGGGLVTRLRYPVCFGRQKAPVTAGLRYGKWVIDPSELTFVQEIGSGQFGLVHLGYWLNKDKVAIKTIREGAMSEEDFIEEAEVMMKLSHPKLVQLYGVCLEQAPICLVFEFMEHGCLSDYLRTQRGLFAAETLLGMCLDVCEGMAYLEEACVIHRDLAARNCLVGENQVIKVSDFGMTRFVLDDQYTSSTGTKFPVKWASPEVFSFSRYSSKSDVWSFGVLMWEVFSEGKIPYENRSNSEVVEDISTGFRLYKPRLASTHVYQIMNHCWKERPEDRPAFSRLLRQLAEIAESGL
Procedure, shortened: as §1

[7] = target: T7, Lck (Homo sapiens, UniProt P06239); assay: Kinase inhibition assay (33P transfer), Lck; conditions: read-out: Lck-1
T7 construct: Kinases are expressed as either kinase domains or full length constructs; made in house
T7 sequence (P06239 whole entry, species assumed, the tested form may be a part): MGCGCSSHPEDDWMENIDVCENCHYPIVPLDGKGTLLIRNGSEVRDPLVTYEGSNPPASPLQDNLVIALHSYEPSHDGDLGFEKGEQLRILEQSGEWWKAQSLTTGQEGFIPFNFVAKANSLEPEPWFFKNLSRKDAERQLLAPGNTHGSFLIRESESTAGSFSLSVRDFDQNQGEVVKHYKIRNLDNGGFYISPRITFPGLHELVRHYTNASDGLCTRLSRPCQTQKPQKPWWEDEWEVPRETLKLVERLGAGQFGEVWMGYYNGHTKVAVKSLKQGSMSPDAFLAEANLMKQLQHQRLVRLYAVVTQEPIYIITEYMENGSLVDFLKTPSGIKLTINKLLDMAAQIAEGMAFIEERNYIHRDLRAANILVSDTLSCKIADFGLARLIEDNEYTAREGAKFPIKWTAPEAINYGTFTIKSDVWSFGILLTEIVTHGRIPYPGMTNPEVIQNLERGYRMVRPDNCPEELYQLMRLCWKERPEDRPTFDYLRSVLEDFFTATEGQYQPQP
Procedure, shortened: as §2

[8] = target: T8, Kdr (Homo sapiens, UniProt P35968); assay: Kinase inhibition assay (33P transfer), Kdr
T8 construct: Kinases are expressed as either kinase domains or full length constructs; made in house
T8 sequence (P35968 20-1356, species assumed): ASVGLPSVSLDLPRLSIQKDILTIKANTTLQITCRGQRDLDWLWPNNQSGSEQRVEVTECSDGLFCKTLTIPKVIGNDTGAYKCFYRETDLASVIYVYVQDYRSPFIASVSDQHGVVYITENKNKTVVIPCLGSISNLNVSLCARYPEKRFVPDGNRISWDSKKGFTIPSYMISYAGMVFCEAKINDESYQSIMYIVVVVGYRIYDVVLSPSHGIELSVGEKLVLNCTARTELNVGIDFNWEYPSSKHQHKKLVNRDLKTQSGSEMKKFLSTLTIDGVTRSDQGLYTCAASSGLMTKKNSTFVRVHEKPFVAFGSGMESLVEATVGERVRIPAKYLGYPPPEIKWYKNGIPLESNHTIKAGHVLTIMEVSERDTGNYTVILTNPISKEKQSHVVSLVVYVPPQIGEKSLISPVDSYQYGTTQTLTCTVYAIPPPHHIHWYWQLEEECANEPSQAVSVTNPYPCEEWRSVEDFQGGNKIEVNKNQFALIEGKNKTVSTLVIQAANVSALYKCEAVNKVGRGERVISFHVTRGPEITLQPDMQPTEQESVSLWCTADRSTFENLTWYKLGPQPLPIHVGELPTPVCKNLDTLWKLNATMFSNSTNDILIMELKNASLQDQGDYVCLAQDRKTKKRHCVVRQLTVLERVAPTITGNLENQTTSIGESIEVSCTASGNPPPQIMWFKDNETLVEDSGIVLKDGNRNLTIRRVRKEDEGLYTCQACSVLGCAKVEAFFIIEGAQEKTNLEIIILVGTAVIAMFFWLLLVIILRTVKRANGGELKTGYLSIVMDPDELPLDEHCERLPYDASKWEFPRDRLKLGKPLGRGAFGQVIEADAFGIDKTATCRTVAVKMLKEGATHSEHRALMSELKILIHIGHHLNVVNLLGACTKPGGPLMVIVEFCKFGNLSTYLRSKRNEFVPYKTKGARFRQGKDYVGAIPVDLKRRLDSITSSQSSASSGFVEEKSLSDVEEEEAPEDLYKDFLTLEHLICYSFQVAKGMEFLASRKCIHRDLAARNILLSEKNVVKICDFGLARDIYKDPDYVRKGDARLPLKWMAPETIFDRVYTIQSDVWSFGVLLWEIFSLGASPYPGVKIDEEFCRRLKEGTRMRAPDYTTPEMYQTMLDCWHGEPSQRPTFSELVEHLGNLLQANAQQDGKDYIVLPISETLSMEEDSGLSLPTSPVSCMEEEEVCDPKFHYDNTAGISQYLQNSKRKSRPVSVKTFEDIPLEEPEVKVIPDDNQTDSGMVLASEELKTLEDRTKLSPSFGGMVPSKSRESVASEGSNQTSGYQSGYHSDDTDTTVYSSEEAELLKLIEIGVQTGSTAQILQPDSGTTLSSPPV
Procedure, shortened: as §2

[9] = target: T9, PDGFRB (Homo sapiens, UniProt P09619); assay: Kinase inhibition assay (33P transfer), PDGFRB; conditions: read-out: PDGFRB-1
T9 construct: Kinases are expressed as either kinase domains or full length constructs; made in house

[10] = target: T10, EGFR (Homo sapiens, UniProt P00533); assay: Kinase inhibition assay (33P transfer), EGFR; conditions: Table 2, kinase inhibition class; read-out: EGFR-1
T10 construct: Kinases are expressed as either kinase domains or full length constructs; made in house
T10 sequence (P00533 25-1210, species assumed): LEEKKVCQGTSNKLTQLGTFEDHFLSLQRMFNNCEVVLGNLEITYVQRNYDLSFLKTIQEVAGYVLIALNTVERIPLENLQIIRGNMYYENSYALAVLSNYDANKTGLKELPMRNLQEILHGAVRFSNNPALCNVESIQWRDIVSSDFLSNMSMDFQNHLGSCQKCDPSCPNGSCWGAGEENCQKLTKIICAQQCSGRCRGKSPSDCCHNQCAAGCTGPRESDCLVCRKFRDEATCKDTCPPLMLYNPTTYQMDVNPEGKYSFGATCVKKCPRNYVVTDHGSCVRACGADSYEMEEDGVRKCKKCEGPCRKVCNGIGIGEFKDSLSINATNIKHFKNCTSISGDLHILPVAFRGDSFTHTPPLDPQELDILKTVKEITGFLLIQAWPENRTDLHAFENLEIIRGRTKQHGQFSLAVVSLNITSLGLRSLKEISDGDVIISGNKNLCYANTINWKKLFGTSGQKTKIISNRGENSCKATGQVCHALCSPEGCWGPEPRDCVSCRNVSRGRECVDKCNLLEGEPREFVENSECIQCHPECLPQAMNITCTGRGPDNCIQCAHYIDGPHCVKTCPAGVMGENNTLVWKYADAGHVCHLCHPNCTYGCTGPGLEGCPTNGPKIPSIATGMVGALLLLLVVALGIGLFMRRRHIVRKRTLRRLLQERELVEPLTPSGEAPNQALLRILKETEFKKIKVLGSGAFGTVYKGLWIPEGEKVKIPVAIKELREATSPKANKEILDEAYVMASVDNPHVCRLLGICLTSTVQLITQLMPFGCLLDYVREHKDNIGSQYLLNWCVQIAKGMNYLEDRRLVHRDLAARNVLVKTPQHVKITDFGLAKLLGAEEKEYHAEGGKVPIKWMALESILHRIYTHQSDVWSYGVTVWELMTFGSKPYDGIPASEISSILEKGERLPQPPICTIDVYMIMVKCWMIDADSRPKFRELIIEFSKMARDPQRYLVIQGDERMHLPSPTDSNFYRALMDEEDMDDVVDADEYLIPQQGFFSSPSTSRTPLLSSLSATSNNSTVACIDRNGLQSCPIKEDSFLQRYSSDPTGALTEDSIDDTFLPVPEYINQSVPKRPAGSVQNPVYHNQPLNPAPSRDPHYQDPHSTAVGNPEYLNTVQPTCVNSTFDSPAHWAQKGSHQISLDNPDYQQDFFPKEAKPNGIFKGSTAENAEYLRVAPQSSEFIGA
Procedure, shortened: as §1

[11] = target: T11, Zap-70 (Homo sapiens, UniProt P43403); assay: Kinase inhibition assay (33P transfer), Zap-70; conditions: read-out: Zap-1
T11 construct: Kinases are expressed as either kinase domains or full length constructs; made in house
T11 sequence (P43403 1-619): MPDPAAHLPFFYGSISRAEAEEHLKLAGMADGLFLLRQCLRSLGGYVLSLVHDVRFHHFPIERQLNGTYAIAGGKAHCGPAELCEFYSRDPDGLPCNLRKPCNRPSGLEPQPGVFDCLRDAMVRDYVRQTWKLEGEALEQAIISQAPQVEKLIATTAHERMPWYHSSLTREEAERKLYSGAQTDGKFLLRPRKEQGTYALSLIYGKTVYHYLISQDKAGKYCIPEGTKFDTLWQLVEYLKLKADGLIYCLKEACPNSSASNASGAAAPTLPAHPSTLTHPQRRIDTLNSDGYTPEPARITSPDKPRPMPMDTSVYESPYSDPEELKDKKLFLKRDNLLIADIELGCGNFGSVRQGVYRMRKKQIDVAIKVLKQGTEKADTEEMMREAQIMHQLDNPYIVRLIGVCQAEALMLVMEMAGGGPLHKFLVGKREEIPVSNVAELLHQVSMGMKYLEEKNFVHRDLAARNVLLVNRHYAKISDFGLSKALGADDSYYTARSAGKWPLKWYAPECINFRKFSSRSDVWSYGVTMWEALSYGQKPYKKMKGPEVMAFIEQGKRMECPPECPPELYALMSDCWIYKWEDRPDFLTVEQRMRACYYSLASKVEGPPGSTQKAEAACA
Procedure, shortened: as §2

Row | SMILES | IC50 [1] [µM] | IC50 [2] [µM] | IC50 [3] [nM] | IC50 [4] [µM] | IC50 [5] [µM] | IC50 [6] [µM] | IC50 [7] [µM] | IC50 ([8]; read-out: KDR-1) [µM] | IC50 [9] [µM] | IC50 [10] [µM] | IC50 [11] [µM] | IC50 ([8]; KDR-1) [µM]
1 | O=C(O)Cc1cccc(Nc2ncnc(Nc3cc(-c4ccccc4)n[nH]3)n2)c1 [Compound 981] | 1.03 to 6.2 | > 11.6 | < 1030 | < 1.03 | 1.03 to 6.2 | 1.03 to 6.2 | 1.03 to 6.2 | < 1.03 | 1.03 to 6.2 | < 1.03 | > 11.6 | 
2 | COc1cc(Nc2ncnc(Nc3cc(-c4ccc(C(=O)O)cc4)n[nH]3)n2)cc(OC)c1OC [Compound 1004] | 0.863 to 5.18 | > 9.71 | < 863 | < 0.863 | 0.863 to 5.18 | 7.55 to 9.71 | < 0.863 | 0.863 to 5.18 | 0.863 to 5.18 | 0.863 to 5.18 | > 9.71 | 
3 | COc1cc(Nc2ncnc(-n3c(C)nc4ccccc43)n2)cc(OC)c1OC [Compound 691] | > 11.5 | > 11.5 | < 1020 | 1.02 to 6.12 | > 11.5 | 6.12 to 8.92 | 1.02 to 6.12 | < 1.02 | < 1.02 | 6.12 to 8.92 | > 11.5 | 
4 | Nc1nc2ccccc2n1-c1ncnc(Nc2ccccc2)n1 [Compound 651] | 7.91 to 11.5 | > 14.8 | < 1320 | 1.32 to 7.91 |  | 1.32 to 7.91 | 1.32 to 7.91 | < 1.32 | 1.32 to 7.91 | > 14.8 | > 14.8 | 
5 | COC(=O)c1ccc(-c2cc(Nc3ncnc(Nc4cccc(CC(=O)O)c4)n3)[nH]n2)cc1 [Compound 604] |  | 5.39 to 7.86 | 898 to 5390 | < 0.898 | 0.898 to 5.39 | 0.898 to 5.39 | 0.898 to 5.39 | 0.898 to 5.39 | 0.898 to 5.39 | 0.898 to 5.39 | 5.39 to 7.86 | 
6 | COc1cc(Nc2ncnc(NC(=O)NCCc3ccccc3)n2)cc(OC)c1OC [Compound 661] |  | > 10.6 | > 10600 | > 10.6 | > 10.6 | > 10.6 | > 10.6 | 0.942 to 5.65 | > 10.6 | > 10.6 | > 10.6 | 
7 | COc1cc(Nc2ncnc(-n3c(NCc4ccc(N(C)C)cc4)nc4ccccc43)n2)cc(OC)c1OC [Compound 593] |  | > 8.55 | < 760 | > 8.55 | 4.56 to 6.65 | > 8.55 | 0.76 to 4.56 | 0.76 to 4.56 | 0.76 to 4.56 | 4.56 to 6.65 | > 8.55 | 
8 | COc1ccc(CNc2nc3ccccc3n2-c2ncnc(Nc3cc(OC)c(OC)c(OC)c3)n2)cc1OC [Compound 596] |  | > 8.28 | > 8280 | > 8.28 | 0.736 to 4.42 | > 8.28 | > 8.28 | 6.44 to 8.28 | 4.42 to 6.44 | 4.42 to 6.44 | > 8.28 | 
9 | COc1cc(Nc2ncnc(-n3c(N)nc4ccccc43)n2)ccc1OCCN1CCOCC1 [Compound 650] | 7.57 to 9.73 | > 9.73 | < 865 | 7.57 to 9.73 |  | > 9.73 | 0.865 to 5.19 | < 0.865 | 0.865 to 5.19 | > 9.73 | > 9.73 | 
10 | COc1cc(Nc2ncnc(-n3c(NCc4ccc(C(F)(F)F)cc4)nc4ccccc43)n2)cc(OC)c1OC [Compound 598] |  | > 8.16 | > 8160 | > 8.16 | 6.35 to 8.16 | > 8.16 | > 8.16 | 0.725 to 4.35 | > 8.16 | > 8.16 | > 8.16 | 
11 | COc1cc(Nc2ncnc(NC(=O)NCc3ccccc3)n2)cc(OC)c1OC [Compound 660] |  | > 11 | > 11000 | > 11 | 5.85 to 8.53 | > 11 | 0.975 to 5.85 | > 11 | > 11 | 0.975 to 5.85 | > 11 | 
12 | COc1cc(Nc2ncnc(Nc3ccc(NC(C)=O)c(C(F)(F)F)c3)n2)cc(OC)c1OC [Compound 617] |  | > 9.41 | 5020 to 7320 | > 9.41 | > 9.41 | > 9.41 | 0.836 to 5.02 | 0.836 to 5.02 | 0.836 to 5.02 | 5.02 to 7.32 | > 9.41 | 
13 | CCN(CC)CCOc1cc(Nc2ncnc(-n3c(N)nc4ccccc43)n2)ccc1OC [Compound 649] | 5.35 to 7.8 | > 10 | < 892 | > 10 |  | 7.8 to 10 | 0.892 to 5.35 | 0.892 to 5.35 | 0.892 to 5.35 | > 10 | > 10 | 
14 | Nc1nc2ccccc2n1-c1ncnc(Nc2ccccn2)n1 [Compound 659] |  | > 14.8 | 1310 to 7890 | > 14.8 | > 14.8 | 1.31 to 7.89 | 7.89 to 11.5 |  | > 14.8 | > 14.8 | > 14.8 | 7.89 to 11.5
